The values below are quoted from earlier work in patent US5556638A, “Flurbiprofen-containing immediate-effect medicament and its use” (Alfatec Pharma GMBH, priority 1991, dated 1996).

One data set deals with pain. The following applies: optical antipodes of flurbiprofen.
The conditions of data set [1]: prior art.
For data set [2] the following is noted: racemate.
In another data set the test system is inflammation. The following applies: optical antipodes of flurbiprofen.

`C[C@@H](C(=O)O)c1ccc(-c2ccccc2)c(F)c1` [R-flurbiprofen]: the analgesic action result with pain is recorded as “pronounced analgesic action”.

Consider `CC(C(=O)O)c1ccc(-c2ccccc2)c(F)c1` (racemic) [Racemic flurbiprofen], for which the “time until therapeutic concentrations are achieved” value in data set [1] (racemic flurbiprofen) was 4 to 5 h. Moreover, in data set [1] (racemic flurbiprofen, blood level maximum), the tmax was 1 to 2 h. The undesirable side effects entry in data set [2] is listed as “significant undesirable side effects”.

Take `C[C@H](C(=O)O)c1ccc(-c2ccccc2)c(F)c1` [S-flurbiprofen]: in the data set with inflammation, the anti-inflammatory action entry is recorded as “marked anti-inflammatory action”.

As for `CC(C(=O)O)c1ccc(-c2ccccc2)c(F)c1` (stereo not drawn) [flurbiprofen, 2-(2-fluoro-4-biphenylyl)propionic acid], the site of absorption result in data set [1] (oral) is listed as “only absorbed in the upper small intestine”.
